Data as given in patent publication US20250188123A1, “PROTEASE INHIBITORS” (Regents of the University of Minnesota, priority 2022, published 2025).

Experiments:
cathepsin B = cathepsin B (Homo sapiens, UniProt P07858); assay: Activity at cathepsin B proteolytic enzyme; type: biochemical
[1] = test system: cultured rat hippocampal neurons expressing GFP-tagged P301S tau; assay: Accumulation of P301S tau in dendritic spines of cultured hippocampal neurons; type: cell-based; settings: 10 μM for 3 days
From the text: The disproportionate accumulation in dendritic spines of mutant tau linked to FTDP-17 depends upon tau-truncation by Casp2 (Zhao X, et al., Nat Med., 2016, 22, 1268-76). […] The P301S tau mutation linked to FTDP-17 (Bugiani O, et al., J Neuropathol Exp Neurol., 1999, 58, 667-677; and Lossos A, et al., J Neurol., 2003, 250, 733-740) was examined to determine whether Compound 1 could prevent the accumulation of tau in dendritic spines. Dissociated hippocampal neurons from postnatal day 0-1 rat pups were cultured. After 5-7 days in vitro (DIV), the neurons were co-transfected with plasmids encoding DsRed (to label neuronal morphology) and GFP-tagged wild-type or P301S mutant tau proteins (FIG. 2A), as previously described (Hoover B R, et al., Neuron., 2010, 68:1067-1081). Neurons at 17-18 DIV were incubated with 10 μM Compound 1 for 3 days and live neurons were imaged at 20-21 DIV.
For all cultured hippocampal neuron studies all human tau and DsRed constructs were expressed in the pRK5 vector and driven by the cytomegalovirus promoter (Clontech Inc.). Human tau proteins were N-terminally fused to enhance GFP (eGFP). The wild-type, native human tau construct encoded human four-repeat tau lacking the transcriptional-variant N-terminal sequences (0N4R) and contained exons 1, 4, 5, 7, 9-13, 14, and intron 13 (RRID: Addgene_46904). […]

## Cc1ccc2c(c1)CCN(C(=O)[C@@H](NC(=O)[C@H](CCCC(=O)O)NC(=O)C1Cc3ccccc3N1)C(C)C)[C@@H]2C(=O)N[C@H](C#N)CC(=O)O (stereo partly drawn) [Compound 1, (8)-6-(((S)-1-((8)-1-(((S)-2-carboxy-1-cyanoethyl)carbamoyl)-6-methyl-3,4-dihydroisoquinolin-2(1H)-yl)-3-methyl-1-oxobutan-2-yl)amino)-5-((S)-indoline-2-carboxamido)-6-oxohexanoic acid]
Cathepsin B
  activity at cathepsin B: weak activity
[1]; compared with untreated wild-type and P301S tau groups
  density of dendritic spines: no significant differences
[1]; neurons expressing P301S tau, untreated P301S 75.5%, wild-type tau 21.9%
  percentage of dendritic spines containing GFP-tagged tau: 24.8%
